Results taken from PubChem BioAssay (NCI).
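Cells were grown in 96-well plates and exposed to each compound for 48 hours at five concentrations; endpoints were interpolated linearly between bracketing concentrations, or set to the highest concentration if not reached. TGI is the concentration that stops growth completely.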

Columns and labels:
Assay in all cases: NCI tumour cell line growth inhibition, 48 h
[1] = tested on: RPMI-8226 leukemia
[2] = tested on: NCI-H226 lung
[3] = tested on: MDA-N
[4] = tested on: SF-295 CNS
[5] = tested on: COLO 205 colon
[6] = tested on: MDA-MB-231 breast
[7] = tested on: MOLT-4 leukemia
[8] = tested on: TK-10 renal
[9] = tested on: K-562 leukemia
[10] = tested on: SN12C renal
[11] = tested on: NCI/ADR-RES ovarian
[12] = tested on: HS 578T breast
[13] = tested on: HOP-62 NSCLC
[14] = tested on: MALME-3M melanoma
[15] = tested on: T-47D breast
[16] = tested on: OVCAR-3 ovarian
[17] = tested on: MCF7 breast
[18] = tested on: PC-3 prostate
[19] = tested on: NCI-H460 lung
[20] = tested on: SK-MEL-5 melanoma
[21] = tested on: LOX IMVI melanoma
[22] = tested on: BT-549 breast
[23] = tested on: HCT-116 colon
[24] = tested on: OVCAR-5 ovarian
[25] = tested on: UO-31 renal
[26] = tested on: HL-60(TB) leukemia
[27] = tested on: OVCAR-4 ovarian
[28] = tested on: DU-145 prostate
[29] = tested on: SW-620 colon
[30] = tested on: UACC-62 melanoma
[31] = tested on: ACHN renal
[32] = tested on: HT29 colon
[33] = tested on: SK-MEL-28 melanoma
[34] = tested on: 786-0 renal
[35] = tested on: UACC-257 melanoma
[36] = tested on: NCI-H522 lung
[37] = tested on: IGROV1 ovarian
[38] = tested on: M14 melanoma
[39] = tested on: HCT-15 colon
[40] = tested on: HOP-92 NSCLC
[41] = tested on: SF-539 CNS
[42] = tested on: SNB-75 CNS
[43] = tested on: U251 CNS
[44] = tested on: MDA-MB-435
[45] = tested on: HCC-2998 colon
[46] = tested on: CCRF-CEM leukemia
[47] = tested on: SNB-19 CNS
[48] = tested on: SK-OV-3 ovarian
[49] = tested on: OVCAR-8 ovarian
[50] = tested on: EKVX NSCLC
[51] = tested on: KM12 colon
[52] = tested on: RXF 393 renal
[53] = tested on: CAKI-1 renal
[54] = tested on: SF-268 CNS
[55] = tested on: SR leukemia
[56] = tested on: A498 renal
[57] = tested on: NCI-H23 lung
[58] = tested on: SK-MEL-2 melanoma
[59] = tested on: A549 NSCLC

CN(C)/C=N/S(=O)(=O)c1nn2c(C=O)c(-c3ccc([N+](=O)[O-])cc3)nc2s1
TGI [1]: > 60.9 µM | TGI [2]: > 95.1 µM | TGI [3]: 17 µM | TGI [4]: > 100 µM | TGI [5]: > 34.3 µM | TGI [6]: > 81.5 µM | TGI [7]: > 21.8 µM | TGI [8]: 21.6 µM | TGI [9]: > 27.3 µM | TGI [10]: 22.6 µM | TGI [11]: > 100 µM | TGI [12]: > 71.8 µM | TGI [13]: > 81.9 µM | TGI [14]: 8.72 µM | TGI [15]: > 45.4 µM | TGI [16]: 18 µM | TGI [17]: > 42 µM | TGI [18]: > 51.9 µM | TGI [19]: > 85.9 µM | TGI [20]: 17.4 µM | TGI [21]: 27 µM | TGI [22]: 25.5 µM | TGI [23]: 6.51 µM | TGI [24]: > 79.6 µM | TGI [25]: 13.2 µM | TGI [26]: 3.85 µM | TGI [27]: 39.7 µM | TGI [28]: > 41.6 µM | TGI [29]: > 34 µM | TGI [30]: 23 µM | TGI [31]: 10.5 µM | TGI [32]: 4.38 µM | TGI [33]: 18.3 µM | TGI [34]: 9.03 µM | TGI [35]: 40.5 µM | TGI [36]: 3.86 µM | TGI [37]: 17.6 µM | TGI [38]: > 32.4 µM | TGI [39]: > 49.6 µM | TGI [40]: 53.5 µM | TGI [41]: 71.4 µM | TGI [42]: > 86.9 µM | TGI [43]: 41.6 µM | TGI [44]: 50.4 µM | TGI [45]: > 43.4 µM | TGI [46]: 19.2 µM | TGI [47]: > 100 µM | TGI [48]: > 100 µM | TGI [49]: 47.4 µM | TGI [50]: 58.7 µM | TGI [51]: 42.3 µM | TGI [52]: > 67 µM | TGI [53]: 7.13 µM | TGI [54]: > 72.9 µM | TGI [55]: > 43.3 µM | TGI [56]: > 100 µM | TGI [57]: 49.7 µM | TGI [58]: 51.3 µM | TGI [59]: > 100 µM

CCOC(=O)CCc1c(C)[nH]c2c(C)c3c([nH]c4ccc(Cl)cc43)c(C)c2c1=O
TGI [2]: 46.5 µM | TGI [3]: > 100 µM | TGI [4]: 22.1 µM | TGI [5]: 89 µM | TGI [6]: 34.2 µM | TGI [7]: > 100 µM | TGI [8]: 37.2 µM | TGI [11]: 54 µM | TGI [12]: 77.5 µM | TGI [13]: 48.4 µM | TGI [14]: 37.1 µM | TGI [15]: 54.3 µM | TGI [17]: 37.7 µM | TGI [18]: > 100 µM | TGI [19]: 6.11 µM | TGI [20]: > 100 µM | TGI [21]: 23.3 µM | TGI [22]: 40.3 µM | TGI [23]: 38.7 µM | TGI [24]: 19.1 µM | TGI [25]: 40.6 µM | TGI [26]: 22.3 µM | TGI [27]: 41.4 µM | TGI [28]: > 100 µM | TGI [29]: > 100 µM | TGI [31]: 28.9 µM | TGI [32]: 18.6 µM | TGI [33]: 46.1 µM | TGI [34]: 20.5 µM | TGI [35]: 30.5 µM | TGI [36]: 24.1 µM | TGI [37]: 26.2 µM | TGI [38]: 18.5 µM | TGI [39]: 54.5 µM | TGI [40]: 67.1 µM | TGI [41]: 28.7 µM | TGI [42]: 30.9 µM | TGI [43]: 43.4 µM | TGI [44]: > 100 µM | TGI [45]: 30.5 µM | TGI [46]: > 100 µM | TGI [47]: > 100 µM | TGI [49]: 83.8 µM | TGI [50]: 37.6 µM | TGI [51]: 87 µM | TGI [52]: 6.76 µM | TGI [53]: 49.5 µM | TGI [54]: 76.7 µM | TGI [55]: > 100 µM | TGI [56]: 33 µM | TGI [57]: 61.7 µM | TGI [58]: 14.4 µM | TGI [59]: 23.5 µM
